For 78 compounds, CC50 results are on record in publication PMC6792352, “Limited Chemical Structural Diversity Found to Modulate Thyroid Hormone Receptor in the Tox21 Chemical Library” (Environmental Health Perspectives, 2019).

Where a name gives a salt, the structure may show the parent alone.

A short description of the data set: in vitro. Conditions: rat, gh3-tre-luc cells.

As for `Cc1cc(O)ccc1N` [4-Amino-m-cresol], for the setting “AC50 (uM) modified / 1000”, the midpoint of cytotoxicity, the CC50 at 24 h, lay at 29.9 µM.
Still for that read-out and setting: the same measure for `CCN(C)N=O` [N-Nitroso-N-methylethylamine]: over 90 µM.
For the compound `CCCCOCCOCCOCCCC` [Diethylene glycol dibutyl ether], where the note is “AC50 (uM) modified / 1000”, the 50% cytotoxic concentration (CC50) (commonly the concentration at which the toxic effect on the cells reaches its halfway point) at 24 h was over 90 µM.
`CCCCN` [Butylamine] yielded a CC50 at 24 h (AC50 (uM) modified / 1000) of over 50 µM.
`CCOC(=O)c1ccc(NC(=O)CN2CCCCC2)cc1` [Sulcaine] returned a CC50 at 24 h (AC50 (uM) modified / 1000) of over 50 µM.
Still for that read-out and setting: the same measure for `C=CCOC(=O)/C=C\C(=O)OCC=C` [Diprop-2-en-1-yl (2Z)-but-2-enedioate]: over 90 µM; for `CC1=CC(O)CC(C)(C)C1` (stereo not drawn) [3,5,5-Trimethyl-2-cyclohexen-1-ol]: over 90 µM.
For the setting “AC50 (uM) modified / 1000”, `CC(=O)C1CCOC1=O` (stereo not drawn) [3-Acetyldihydro-2(3H)-furanone] had a CC50 at 24 h of over 100 µM.
Same read-out and setting: the same measure for `CCCCCCCCCC#N` [Decanenitrile]: over 90 µM.
For the setting “AC50 (uM) modified / 1000”, `CCc1nccnc1C` [3-Ethyl-2-methylpyrazine] showed a CC50 at 24 h of over 90 µM.
Take `CC1=CC(=O)[C@H]2C[C@@H]1C2(C)C` [L-Verbenone]: the CC50 at 24 h (AC50 (uM) modified / 1000) was over 90 µM.
Consider `NC(=O)C1c2ccccc2CCc2ccccc21` [Cyheptamide], for which the CC50 at 24 h (AC50 (uM) modified / 1000) is over 50 µM.
Take `CC(C)(C)NC(=O)[C@H]1CC[C@H]2[C@@H]3CC=C4C=C(C(=O)O)CC[C@]4(C)[C@H]3CC[C@]12C` [Epristeride]: the CC50 at 24 h (AC50 (uM) modified / 1000) is over 50 µM.
Still for that read-out and setting: with `CC(=O)N[C@@H]([C@@H](O)[C@H](O)[C@H](O)CO)[C@@H](O)CC(=O)C(=O)O` [Aceneuramic acid] the figure was over 50 µM.
The same measure, in the same setting: the same measure for `C=C[C@@]1(C)CC(=O)[C@]2(O)[C@@]3(C)[C@@H](O)CCC(C)(C)[C@@H]3[C@H](O)[C@H](OC(C)=O)[C@@]2(C)O1` [Forskolin]: over 90 µM; for `C[C@H](N)[C@H](O)c1cccc(O)c1` [Metaraminol bitartrate]: over 20 µM.
On to `O=C(CCCN1CCC(C(=O)c2ccc(F)cc2)CC1)c1ccc(F)cc1` [Lenperone], for which the CC50 at 24 h (AC50 (uM) modified / 1000) is over 50 µM.
On the same count and under the same terms, with `CCN(CC)C(=O)c1cccc(C)c1` [DEET] the figure was over 90 µM; with `CC(=O)CC(=O)c1ccccc1` [1-Benzoylacetone], over 90 µM.
Same read-out and setting: with `CC(=O)OCC(CCn1cnc2cnc(N)nc21)COC(C)=O` [Famciclovir] the figure was over 50 µM; with `C[C@@]1(c2ccc(Oc3ccccc3)cc2)OC(=O)N(Nc2ccccc2)C1=O` (racemic) [Famoxadone], 39 µM.
`CC(C)CC(C)(C)C` [2,2,4-Trimethylpentane] gave a CC50 at 24 h (AC50 (uM) modified / 1000) of over 100 µM.
Same read-out and setting: the same measure for `FC(F)(Cl)C(F)(Cl)Cl` [1,1,2-Trichloro-1,2,2-trifluoroethane]: over 90 µM.
For the compound `O=C(NC(=O)c1c(F)cccc1F)Nc1cc(Cl)c(F)c(Cl)c1F` [Teflubenzuron], under “AC50 (uM) modified / 1000”, the CC50 at 24 h was over 80 µM.
Same read-out and setting: with `CCCCC(CC)CNCC(CC)CCCC` (stereo not drawn) [Bis-2-ethylhexylamine] the figure was over 90 µM.
For the compound `CCN[C@H]1CN(CCCOC)S(=O)(=O)c2sc(S(N)(=O)=O)cc21` [Brinzolamide], the CC50 at 24 h (AC50 (uM) modified / 1000) is over 20 µM.
Same read-out and setting: with `CCCCCCOC(=O)c1cccnc1` [Hexyl nicotinate] the figure was over 50 µM.
In the case of `O=C(CCCN1CC=C(n2c(=O)[nH]c3ccccc32)CC1)c1ccc(F)cc1` [Droperidol], the CC50 at 24 h (AC50 (uM) modified / 1000) was over 50 µM.
The same measure, in the same setting: with `O=C=NCC1CCCC(CN=C=O)C1` (stereo not drawn) [1,3-Bis(isocyanatomethyl)cyclohexane] the figure was over 90 µM.
Turning to `O=[N+]([O-])c1cccc2cccc([N+](=O)[O-])c12` [1,8-Dinitronaphthalene], under “AC50 (uM) modified / 1000, Tox21_110001=Tox21_202886, viability, 1 nM T3 present, 24 h”, the CC50 at 24 h was over 90 µM.
`CCOC(=O)c1cn2nc(OP(=S)(OCC)OCC)cc2nc1C` [Pyrazophos]: under “AC50 (uM) modified / 1000, Tox21_110001=Tox21_301359, viability, 1 nM T3 present, 24 h”, the CC50 at 24 h was over 90 µM.
As for `COC(=O)[C@@H]1[C@H]2CC[C@@H](C[C@H]1OC(=O)c1ccccc1)N2C` [Allococaine hydrochloride], the CC50 at 24 h (AC50 (uM) modified / 1000) is over 50 µM.
In the case of `CC1OCCC1=O` (stereo not drawn) [2-Methyldihydrofuran-3(2H)-one], where the note is “AC50 (uM) modified / 1000”, the CC50 at 24 h was over 90 µM.
Same read-out and setting: with `Cc1cnc(C)c(C)n1` [2,3,5-Trimethylpyrazine] the figure was over 100 µM; with `N=C(N)N1CCc2ccccc2C1` [Debrisoquin sulfate], over 50 µM.
Same read-out and setting: the same measure for `O=C1/C(=C/c2cccs2)CCC/C1=C\c1cccs1` [Tenylidone]: over 50 µM; for `CN(C)C1CSSSC1` [Thiocyclam oxalate]: over 90 µM.
Turning to `C[C@@H]1C[C@H]2[C@@H]3CCC4=CC(=O)C=C[C@]4(C)[C@@]3(F)[C@@H](O)C[C@]2(C)[C@@]1(O)C(=O)CO` [Dexamethasone], the CC50 at 24 h (AC50 (uM) modified / 1000) is over 90 µM.
In the case of `CCCCC(O)(Cn1cncn1)c1ccc(Cl)cc1Cl` (stereo not drawn) [Hexaconazole], under “AC50 (uM) modified / 1000”, the CC50 at 24 h stood at 54.6 µM.
Consider `CC(=O)c1cccnc1` [3-Acetylpyridine], for which, for the setting “AC50 (uM) modified / 1000”, the CC50 at 24 h is over 90 µM.
The same measure, in the same setting: with `Nc1nc2nc[nH]c2c(=S)[nH]1` [6-Thioguanine] the figure was over 90 µM; with `Cc1ccc(S(=O)(=O)N=C=O)cc1` [p-Toluenesulphonyl isocyanate], over 90 µM.
Turning to `COc1ccc2cc([C@H](C)CO)ccc2c1` [Naproxol], the CC50 at 24 h (AC50 (uM) modified / 1000) was over 50 µM.
Turning to `CC(C)N(c1ccccc1)C(C)C` [N,N-Diisopropylaniline], the CC50 at 24 h (AC50 (uM) modified / 1000) is over 90 µM.
Take `O=S1(=O)CCCO1` [1,3-Propane sultone]: the CC50 at 24 h (AC50 (uM) modified / 1000) is over 90 µM.
In the case of `CCCCCN(C)CCC(O)(P(=O)(O)O)P(=O)(O)O` [Ibandronate sodium], the CC50 at 24 h (AC50 (uM) modified / 1000) was over 50 µM.
For the compound `O=S(=O)(c1ccccc1)c1ccccc1` [Diphenylsulfone], the CC50 at 24 h (AC50 (uM) modified / 1000, Tox21_110001=Tox21_301190, viability, 1 nM T3 present, 24 h) is over 90 µM.
The compound `CCOP(=S)(OCC)SCSP(=S)(OCC)OCC` [Ethion] gave a CC50 at 24 h (AC50 (uM) modified / 1000, Tox21_110001=Tox21_300175, viability, 1 nM T3 present, 24 h) of over 90 µM.
For `CC(C)(C)C(=O)NCCCC(=O)O` [Pivagabine], under “AC50 (uM) modified / 1000”, the CC50 at 24 h is over 50 µM.
In the case of `CCC(C)(CC)c1cc(NC(=O)c2c(OC)cccc2OC)on1` [Isoxaben], the CC50 at 24 h (AC50 (uM) modified / 1000) is over 90 µM.
`O=c1oc2ccccc2c(O)c1Cc1c(O)c2ccccc2oc1=O` [Dicumarol] came in with a CC50 at 24 h (AC50 (uM) modified / 1000) of over 20 µM.
Same read-out and setting: with `CCC(C)(Oc1ccc(C2(c3ccc(OC(C)(CC)C(=O)O)cc3)CCCCC2)cc1)C(=O)O` (stereo not drawn) [Clinofibrate] the figure was over 50 µM.
The same measure, in the same setting: with `COc1cc2c(cc1OC)-c1c/c(=N\c3c(C)cc(C)cc3C)n(C)c(=O)n1CC2` [Trequinsin hydrochloride] the figure was 20.3 µM; with `c1ccncc1` [Pyridine hydrochloride], over 90 µM.
Regarding `OCC(O)c1ccccc1` (stereo not drawn) [Styrene glycol], the CC50 at 24 h (AC50 (uM) modified / 1000) was over 90 µM.
The same measure, in the same setting: the same measure for `COC(=O)CCS` [3-Mercaptopropionic acid methyl ester]: over 90 µM; for `Clc1ccc(C(Cn2ccnc2)OCc2csc3c(Cl)cccc23)c(Cl)c1` (stereo not drawn) [Sertaconazole nitrate]: 18.4 µM.
The same measure, in the same setting: with `CC(C)(C)Cl` [t-Butylchloride] the figure was over 100 µM; with `CC(C)(C)C(=O)Cl` [2,2-Dimethylpropanoyl chloride], over 90 µM; with `O=C(OCCc1ccccc1)c1ccccc1` [2-Phenylethyl benzoate], over 90 µM.
Same read-out and setting: the same measure for `O=C(Cl)c1cc(C(=O)Cl)cc(C(=O)Cl)c1` [1,3,5-Benzenetricarbonyl trichloride]: 80 µM.
Where the note is “AC50 (uM) modified / 1000”, `Cc1nc2cc(Cl)ccc2[nH]1` [5-Chloro-2-methyl-1H-benzimidazole] registered a CC50 at 24 h of over 90 µM.
On the same count and under the same terms, with `CO/N=C(\C(=O)N[C@@H]1C(=O)N2C(C(=O)O)=C(Cn3nnc(C)n3)CS[C@H]12)c1csc(N)n1` [Cefteram] the figure was over 50 µM; with `NCC1CCCC(CN)C1` (stereo not drawn) [1,3-Cyclohexanedimethanamine], over 90 µM.
Still for that read-out and setting: the same measure for `C[N+](C)(CCCCCC[N+](C)(C)C1c2ccccc2-c2ccccc21)C1c2ccccc2-c2ccccc21` [Hexafluorenium dibromide]: over 50 µM.
As to `CC(C)(C)C(=O)CC(=O)C(C)(C)C` [Dipivaloylmethane], the CC50 at 24 h (AC50 (uM) modified / 1000) is over 100 µM.
Compound `CCNc1nc(NC(C)C)nc(SC)n1` [Ametryn] gave a half-maximal cytotoxic concentration (CC50) at 24 h (AC50 (uM) modified / 1000) of over 90 µM.
Same read-out and setting: with `O=Cc1c2ccccc2c(Cl)c2ccccc12` [10-Chloro-9-anthraldehyde] the figure was over 50 µM; with `CCN1C[C@]2(COC)[C@H](O)C[C@H](OC)[C@]34C1[C@H]([C@H](OC)[C@H]23)[C@]1(OC(C)=O)[C@H]2[C@@H](OC(=O)c3ccccc3)[C@](O)(C[C@H]24)[C@@H](OC)[C@@H]1O` [Aconitine], over 50 µM; with `Oc1cc2c(cc1O)[C@@H]1c3ccc(O)c(O)c3OC[C@]1(O)C2` [Hematoxylin], 69.9 µM.
`O=C(C[C@H]1NCCC[C@@H]1O)Cn1cnc2cc(Br)c(Cl)cc2c1=O` (racemic) [Halofuginone hydrochloride] had a CC50 at 24 h (AC50 (uM) modified / 1000) of over 50 µM.
`CC(=O)/C=C/C1C(C)=CCCC1(C)C` (stereo not drawn) [alpha-Ionone] showed a CC50 at 24 h (AC50 (uM) modified / 1000) of over 90 µM.
On the same count and under the same terms, with `Cc1ccc(-n2nc(C(C)(C)C)cc2NC(=O)Nc2ccc(OCCN3CCOCC3)c3ccccc23)cc1` [Doramapimod] the figure was over 50 µM.
The same measure, in the same setting: the same measure for `CC(=O)c1ccc2ccc3ccccc3c2c1` [3-Acetylphenanthrene]: over 90 µM; for `CC(C)(C)C(O)C(Oc1ccc(Cl)cc1)n1cncn1` (stereo not drawn) [Triadimenol]: over 90 µM; for `Cn1cnc([N+](=O)[O-])c1Sc1ncnc2nc[nH]c12` [Azathioprine]: over 50 µM.
For the compound `O=C1OC(O)C(C(Cl)Cl)=C1Cl` (stereo not drawn) [3-Chloro-4-(dichloromethyl)-5-hydroxy-2(5H)-furanone], half-maximal cytotoxicity (AC50 (uM) modified / 1000) (CC50 at 24 h) was put at 35 µM.
The compound `BrC(Br)C(Br)(Br)Br` [Pentabromoethane] displayed a CC50 at 24 h (AC50 (uM) modified / 1000, Tox21_110001=Tox21_200571, viability, 1 nM T3 present, 24 h) of 24.2 µM. That is a double-digit micromolar value.
